Source: PubChem BioAssay AID328 (DTP/NCI, 2004)
Several values for one entry are separate records, joined by “and”; a condition that tells them apart may be missing. Equal entries are not always repeated. Toxic doses and inconclusive results are not listed. The calls were made as follows: active = survival T/C of 150% or more; inactive = T/C below 125% in these data.

System: BDF1 mice, P388 leukemia ip, median survival T/C
Assay: NCI In Vivo Anticancer Drug Screen. Data for tumor model P388 Leukemia (intraperitoneal) in B6D2F1 (BDF1) mice
Conditions: endpoint: median survival time, higher = longer survival
Method in brief: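 Vehicle-dosed animals serve as the reference; survival of compound-dosed, tumour-implanted mice is divided by it.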

[1] = dose: 200.0 mg/kg/injection, schedule: Q04DX003 (ip), vehicle: saline with Tween-80

Measured: T/C

COC(=O)C(C)NC1=C(Cl)C(=O)C(NC(C)C(=O)OC)=C(Cl)C1=O (centres undefined)
inactive: dose: 50.0 mg/kg/injection, schedule: Q01DX009 (ip), vehicle: saline + Tween-80 + alcohol 98 % of control | dose: 100.0 mg/kg/injection, schedule: Q01DX009 (ip), vehicle: saline + Tween-80 + alcohol 97 % of control | dose: 200.0 mg/kg/injection, schedule: Q01DX009 (ip), vehicle: saline + Tween-80 + alcohol 101 % of control

CCN(CC)CCNc1ncnc2c1cnn2-c1ccc(Cl)cc1
inactive: dose: 100.0 mg/kg/injection, schedule: Q04DX003 (ip), vehicle: saline with Tween-80 109 % of control | [1] 109 % of control

C=CCc1c(C)cc(C)c(C)c1O
inactive: dose: 100.0 mg/kg/injection, schedule: Q04DX003 (sc), vehicle: olive oil, sesame oil, peanut oil 96 % of control | dose: 200.0 mg/kg/injection, schedule: Q04DX003 (sc), vehicle: olive oil, sesame oil, peanut oil 92 % of control | dose: 400.0 mg/kg/injection, schedule: Q04DX003 (sc), vehicle: olive oil, sesame oil, peanut oil 92 % of control

Nc1ncn(C2CC(O)C(CO)O2)c(=O)n1 (centres undefined)
109 % of control and 212 % of control: dose: 0.8 mg/kg/injection, schedule: Q01DX009 (ip), vehicle: Klucel (hydroxypropylcellulose) (HPC)
active: dose: 0.1 mg/kg/injection, schedule: Q01DX009 (ip), vehicle: Klucel (hydroxypropylcellulose) (HPC) 190 % of control | dose: 0.2 mg/kg/injection, schedule: Q01DX009 (ip), vehicle: Klucel (hydroxypropylcellulose) (HPC) 160 % of control and 206 % of control | dose: 0.4 mg/kg/injection, schedule: Q01DX009 (ip), vehicle: Klucel (hydroxypropylcellulose) (HPC) 175 % of control and 190 % of control | dose: 0.4 mg/kg/injection, schedule: Q01DX009 (ip), vehicle: saline 150 % of control | dose: 0.8 mg/kg/injection, schedule: Q01DX009 (ip), vehicle: saline 188 % of control | dose: 3.12 mg/kg/injection, schedule: Q04DX003 (ip), vehicle: saline 235 % of control | dose: 6.25 mg/kg/injection, schedule: Q04DX003 (ip), vehicle: saline 265 % of control | dose: 12.5 mg/kg/injection, schedule: Q04DX003 (ip), vehicle: saline 160 % of control
inactive: dose: 0.03 mg/kg/injection, schedule: Q01DX009 (ip), vehicle: saline 119 % of control | dose: 0.05 mg/kg/injection, schedule: Q01DX009 (ip), vehicle: saline 121 % of control | dose: 1.56 mg/kg/injection, schedule: Q01DX009 (ip), vehicle: saline 106 % of control | dose: 3.12 mg/kg/injection, schedule: Q01DX009 (ip), vehicle: saline 94 % of control | dose: 6.25 mg/kg/injection, schedule: Q01DX009 (ip), vehicle: saline 90 % of control

CCOC(=O)c1ccc(N(CCOS(C)(=O)=O)CCOS(C)(=O)=O)cc1
active: dose: 66.0 mg/kg/injection, schedule: Q01DX008 (ip), vehicle: saline with Tween-80 200 % of control | dose: 100.0 mg/kg/injection, schedule: Q01DX008 (ip), vehicle: saline with Tween-80 222 % of control | dose: 132.0 mg/kg/injection, schedule: Q04DX003 (ip), vehicle: saline with Tween-80 177 % of control | dose: 150.0 mg/kg/injection, schedule: Q01DX008 (ip), vehicle: saline with Tween-80 272 % of control | [1] 190 % of control | dose: 300.0 mg/kg/injection, schedule: Q04DX003 (ip), vehicle: saline with Tween-80 195 % of control

CCCCCCC#CC(=O)OC
inactive: dose: 25.0 mg/kg/injection, schedule: Q01DX009 (ip), vehicle: saline with Tween-80 106 % of control | dose: 50.0 mg/kg/injection, schedule: Q01DX009 (ip), vehicle: saline with Tween-80 106 % of control | dose: 100.0 mg/kg/injection, schedule: Q01DX009 (ip), vehicle: saline with Tween-80 109 % of control | dose: 200.0 mg/kg/injection, schedule: Q01DX009 (ip), vehicle: saline with Tween-80 106 % of control

COc1cc(C)c(C2NC(=O)c3ccccc3N2)cc1C (centres undefined)
active: dose: 200.0 mg/kg/injection, schedule: Q01DX009 (ip), vehicle: Klucel (hydroxypropylcellulose) (HPC) 155 % of control and 170 % of control | dose: 265.0 mg/kg/injection, schedule: Q01DX009 (ip), vehicle: Klucel (hydroxypropylcellulose) (HPC) 150 % of control
